From patent publication US20250129092A1, “COMPOUNDS USEFUL IN MODULATION OF AHR SIGNALLING” (JAGUAHR THERAPEUTICS PTE LTD, priority 2021, published 2025)
In brackets after ≈: the same amount, converted by molar mass.

Legend:
[1] = Hepatocytes Clint (m); assay type: in vitro ADME; settings: mouse
[2] = biological target: T1, AhR (Homo sapiens, UniProt P35869); experiment: AhR antagonism in U937 cells (Promega P450-Glo assay); assay type: cell-based; set-up: endogenous in cells; host or cells: U937 cells; settings: CYP1A1 activity readout (Luciferin-CEE), head names VAF347, average, read-out: U937 Antagonist pIC50-VAF347: av. pIC50 (converted)
T1 sequence (P35869 11-848): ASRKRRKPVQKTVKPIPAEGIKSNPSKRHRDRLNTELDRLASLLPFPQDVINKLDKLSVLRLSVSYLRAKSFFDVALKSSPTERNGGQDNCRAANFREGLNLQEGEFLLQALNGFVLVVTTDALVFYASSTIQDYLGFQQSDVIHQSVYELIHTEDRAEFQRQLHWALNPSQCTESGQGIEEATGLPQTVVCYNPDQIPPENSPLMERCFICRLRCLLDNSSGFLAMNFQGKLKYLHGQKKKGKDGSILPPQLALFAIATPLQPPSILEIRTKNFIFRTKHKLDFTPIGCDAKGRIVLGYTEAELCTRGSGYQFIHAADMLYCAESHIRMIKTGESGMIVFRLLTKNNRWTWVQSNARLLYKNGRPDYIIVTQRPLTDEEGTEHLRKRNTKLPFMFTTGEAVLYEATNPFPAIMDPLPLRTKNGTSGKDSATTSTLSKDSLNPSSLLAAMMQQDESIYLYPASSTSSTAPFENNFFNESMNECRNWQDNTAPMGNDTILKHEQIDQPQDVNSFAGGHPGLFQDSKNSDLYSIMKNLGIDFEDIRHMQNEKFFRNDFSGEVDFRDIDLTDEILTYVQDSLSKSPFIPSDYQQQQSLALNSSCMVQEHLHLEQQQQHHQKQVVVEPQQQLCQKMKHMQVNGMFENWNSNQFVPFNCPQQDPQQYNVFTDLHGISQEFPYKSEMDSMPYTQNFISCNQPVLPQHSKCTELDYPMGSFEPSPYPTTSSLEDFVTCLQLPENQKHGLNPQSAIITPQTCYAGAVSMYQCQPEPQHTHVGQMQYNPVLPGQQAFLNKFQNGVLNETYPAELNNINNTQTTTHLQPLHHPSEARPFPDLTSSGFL
Method in brief: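 Human U937 histiocytic lymphoma cells were seeded in Ultraculture serum free media (Lonza) at 100,000 cells per well in round bottom 96 well plates and exposed to seven test compound concentrations for 24 hrs at 37° C., ≥85% humidity, 5% CO2. AhR antagonism was measured as CYP1A1 activity. After removing supernatant, Luciferin-CEE ([Final] 83 μM) was added for 3 hrs. Detection reagent stopped the reaction, and luminescence was read 20 minutes later.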

[3] = biological target: hERG (Homo sapiens, UniProt Q12809); experiment: hERG
[4] = Hepatocytes Clint (Hu); assay type: in vitro ADME; settings: human
[5] = biological target: T1, AhR; experiment: AhR antagonism in human PBMCs - inhibition of IL-22 release; assay type: cell-based; set-up: endogenous in cells; settings: human PBMCs activated with CD3/CD28 agonist mixture, 72 hrs, IL-22 ELISA; average; read-out: hPBMC Inhibition of CD3/CD28 induced IL-22 release: av. pIC50 (converted)
Method in brief: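 Human PBMCs (1×10^6 cells/ml, 100,000 per well) activated with CD3/CD28 agonist (TransAct); seven compound concentrations added 1 h later (0.2% DMSO final). After 72 h at 37 °C, IL-22 in medium measured by ELISA.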

[6] = biological target: CYP 3A4 (Homo sapiens, UniProt P08684); experiment: CYP 3A4; assay type: in vitro ADME
[7] = ChromLogD; assay type: physicochemical
[8] = biological target: CYP 2C19 (Homo sapiens, UniProt P33261); experiment: CYP 2C19; assay type: in vitro ADME
[9] = biological target: T2, CYP 1A2 (Homo sapiens, UniProt P05177); experiment: CYP 1A2; assay type: in vitro ADME
T2 sequence (P05177 1-516): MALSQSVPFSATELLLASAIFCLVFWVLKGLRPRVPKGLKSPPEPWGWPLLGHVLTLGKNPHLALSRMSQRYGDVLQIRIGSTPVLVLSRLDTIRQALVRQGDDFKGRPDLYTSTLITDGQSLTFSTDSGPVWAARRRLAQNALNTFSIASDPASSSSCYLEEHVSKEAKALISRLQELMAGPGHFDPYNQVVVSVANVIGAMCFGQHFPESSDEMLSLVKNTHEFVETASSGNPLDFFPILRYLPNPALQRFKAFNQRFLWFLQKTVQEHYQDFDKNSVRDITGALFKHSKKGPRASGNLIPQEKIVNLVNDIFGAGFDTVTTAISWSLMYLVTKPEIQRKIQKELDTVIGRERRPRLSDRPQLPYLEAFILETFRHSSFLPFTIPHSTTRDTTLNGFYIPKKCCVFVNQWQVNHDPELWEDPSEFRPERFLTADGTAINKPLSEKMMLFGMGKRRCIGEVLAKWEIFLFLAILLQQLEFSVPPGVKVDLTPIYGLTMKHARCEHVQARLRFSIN

[10] = Kinetic solubility; assay type: physicochemical; settings: kinetic from dmso stock
[11] = Caco-2 permeability / efflux; assay type: in vitro ADME; settings: human
[12] = biological target: CYP 2C9 (Homo sapiens, UniProt P11712); experiment: CYP 2C9; assay type: in vitro ADME
[13] = biological target: CYP 2D6 (Homo sapiens, UniProt P10635); experiment: CYP 2D6; assay type: in vitro ADME
Sequence of CYP 2D6 (P10635 whole entry): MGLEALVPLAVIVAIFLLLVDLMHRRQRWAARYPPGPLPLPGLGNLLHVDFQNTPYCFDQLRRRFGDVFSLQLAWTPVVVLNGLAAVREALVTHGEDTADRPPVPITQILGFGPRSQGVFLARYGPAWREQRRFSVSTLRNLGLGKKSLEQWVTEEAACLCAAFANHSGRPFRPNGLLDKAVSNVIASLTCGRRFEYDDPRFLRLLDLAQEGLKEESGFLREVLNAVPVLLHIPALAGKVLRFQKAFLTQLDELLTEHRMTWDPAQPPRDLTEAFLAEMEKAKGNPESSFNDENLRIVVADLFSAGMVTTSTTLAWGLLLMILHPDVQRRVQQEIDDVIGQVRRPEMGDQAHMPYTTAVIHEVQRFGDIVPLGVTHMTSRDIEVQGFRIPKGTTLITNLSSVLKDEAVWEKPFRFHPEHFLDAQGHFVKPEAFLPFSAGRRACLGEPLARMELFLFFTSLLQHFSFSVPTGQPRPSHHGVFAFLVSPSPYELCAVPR

Sequence of CYP 3A4 (P08684 whole entry, species assumed): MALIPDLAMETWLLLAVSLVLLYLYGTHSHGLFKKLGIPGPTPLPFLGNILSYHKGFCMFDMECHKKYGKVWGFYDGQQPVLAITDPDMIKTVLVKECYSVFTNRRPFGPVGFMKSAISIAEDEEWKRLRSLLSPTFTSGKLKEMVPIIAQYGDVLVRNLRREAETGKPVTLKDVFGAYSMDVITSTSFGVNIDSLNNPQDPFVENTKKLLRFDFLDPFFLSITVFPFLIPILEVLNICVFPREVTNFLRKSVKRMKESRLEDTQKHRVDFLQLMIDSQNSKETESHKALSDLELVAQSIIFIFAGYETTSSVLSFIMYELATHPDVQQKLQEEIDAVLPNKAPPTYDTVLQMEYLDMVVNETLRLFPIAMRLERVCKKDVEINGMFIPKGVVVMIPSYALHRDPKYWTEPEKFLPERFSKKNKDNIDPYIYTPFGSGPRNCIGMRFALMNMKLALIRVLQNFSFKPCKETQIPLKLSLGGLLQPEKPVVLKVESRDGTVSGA
Sequence of CYP 2C19 (P33261 whole entry): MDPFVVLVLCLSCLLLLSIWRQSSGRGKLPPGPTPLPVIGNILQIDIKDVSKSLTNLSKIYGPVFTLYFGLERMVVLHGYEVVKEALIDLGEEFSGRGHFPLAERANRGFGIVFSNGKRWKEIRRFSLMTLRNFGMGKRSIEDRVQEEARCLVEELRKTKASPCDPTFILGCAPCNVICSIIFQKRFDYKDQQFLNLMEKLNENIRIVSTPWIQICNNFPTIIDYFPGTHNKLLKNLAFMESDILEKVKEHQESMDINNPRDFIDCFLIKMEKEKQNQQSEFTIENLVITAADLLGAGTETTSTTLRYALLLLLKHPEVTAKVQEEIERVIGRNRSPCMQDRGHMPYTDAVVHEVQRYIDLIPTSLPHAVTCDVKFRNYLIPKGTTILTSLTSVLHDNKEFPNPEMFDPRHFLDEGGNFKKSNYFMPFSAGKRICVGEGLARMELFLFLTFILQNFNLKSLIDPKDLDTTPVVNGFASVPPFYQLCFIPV
Sequence of CYP 2C9 (P11712 whole entry): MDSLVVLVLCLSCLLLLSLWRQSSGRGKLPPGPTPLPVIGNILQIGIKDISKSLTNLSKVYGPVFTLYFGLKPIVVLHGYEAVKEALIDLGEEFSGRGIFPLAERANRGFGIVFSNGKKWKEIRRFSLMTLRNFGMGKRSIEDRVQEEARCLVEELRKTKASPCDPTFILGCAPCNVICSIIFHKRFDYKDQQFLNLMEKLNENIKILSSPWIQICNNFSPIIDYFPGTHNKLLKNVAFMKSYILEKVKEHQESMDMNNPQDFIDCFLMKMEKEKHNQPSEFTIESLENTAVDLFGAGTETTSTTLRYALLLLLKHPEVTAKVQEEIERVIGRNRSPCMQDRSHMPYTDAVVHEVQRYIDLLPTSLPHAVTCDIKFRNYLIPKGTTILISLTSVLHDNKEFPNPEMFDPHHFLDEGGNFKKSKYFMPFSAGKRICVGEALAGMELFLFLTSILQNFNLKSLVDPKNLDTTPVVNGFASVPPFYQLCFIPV
Sequence of hERG (Q12809 whole entry): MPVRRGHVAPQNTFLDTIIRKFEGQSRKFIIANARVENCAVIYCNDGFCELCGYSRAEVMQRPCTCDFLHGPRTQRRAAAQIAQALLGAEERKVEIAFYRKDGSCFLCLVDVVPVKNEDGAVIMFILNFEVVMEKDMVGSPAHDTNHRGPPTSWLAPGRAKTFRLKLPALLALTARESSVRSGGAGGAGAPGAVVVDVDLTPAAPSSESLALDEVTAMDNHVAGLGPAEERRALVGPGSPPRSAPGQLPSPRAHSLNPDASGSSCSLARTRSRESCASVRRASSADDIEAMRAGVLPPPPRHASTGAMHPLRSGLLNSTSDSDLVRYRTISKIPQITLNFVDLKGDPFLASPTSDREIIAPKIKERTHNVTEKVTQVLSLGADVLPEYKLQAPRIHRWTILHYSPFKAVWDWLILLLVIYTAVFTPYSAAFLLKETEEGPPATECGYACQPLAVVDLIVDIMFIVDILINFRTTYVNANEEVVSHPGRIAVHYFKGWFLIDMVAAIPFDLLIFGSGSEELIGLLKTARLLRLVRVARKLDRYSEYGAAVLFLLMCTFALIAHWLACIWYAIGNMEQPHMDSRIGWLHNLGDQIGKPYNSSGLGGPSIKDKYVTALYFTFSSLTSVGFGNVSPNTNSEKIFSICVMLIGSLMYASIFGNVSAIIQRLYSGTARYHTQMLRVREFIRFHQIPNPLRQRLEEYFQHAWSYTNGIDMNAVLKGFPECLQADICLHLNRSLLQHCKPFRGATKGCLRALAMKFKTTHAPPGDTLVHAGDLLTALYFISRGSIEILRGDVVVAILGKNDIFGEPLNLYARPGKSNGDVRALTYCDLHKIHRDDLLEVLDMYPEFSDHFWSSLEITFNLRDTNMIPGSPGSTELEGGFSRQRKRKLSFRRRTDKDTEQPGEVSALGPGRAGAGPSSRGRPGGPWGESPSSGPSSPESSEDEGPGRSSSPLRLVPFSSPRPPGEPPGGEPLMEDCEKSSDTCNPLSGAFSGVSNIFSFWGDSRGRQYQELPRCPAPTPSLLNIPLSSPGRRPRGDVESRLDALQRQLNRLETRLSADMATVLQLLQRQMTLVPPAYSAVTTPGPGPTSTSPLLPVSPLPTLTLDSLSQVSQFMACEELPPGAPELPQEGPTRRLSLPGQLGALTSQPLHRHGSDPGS

| hepatocyte CLint [1] [µL/min/1e6 cells] | IC50 [2] [nM] | hepatocyte CLint [4] [µL/min/1e6 cells] | IC50 [5] [nM] | IC50 [6] [nM] | fold difference (3A4/U937) ([6]; CYP 3A4 versus U937) | chromatographic logD [7] | IC50 [8] [nM] | IC50 [9] [nM] | solubility kinetic [10] [µM] | efflux ratio [11] | Papp A→B ([11]; A to B) [×10⁻⁶ cm/s] | IC50 [12] [nM] | IC50 [13] [nM] | Compound | IC50 [3] [nM] |
| --- | --- | --- | --- | --- | --- | --- | --- | --- | --- | --- | --- | --- | --- | --- | --- |
| 115 | 2.69 | 7.1 | 1.7 | 7200 | 1986 | 2.39 | 43400 | 45300 | 119 (≈ 46.3 µg/mL) | 4 | 7.16 | 4700 | 50000 | O=c1[nH]cccc1-c1nc2c(c(OCCc3c[nH]c4ccccc34)n1)OCCN2 [Example 25, 3-(4-(2-(1H-indol-3-yl)ethoxy)-7,8-dihydro-6H-pyrimido[5,4-b][1,4]oxazin-2-yl)pyridin-2(1H)-one] | 7300 |
| – | 1.58 | – | 0.646 | – | – | – | – | – | – | – | – | – | – | O=c1[nH]cc(F)cc1-c1nc2c(c(NCCc3c[nH]c4cc(F)ccc34)n1)OCCN2 [Example 70, 5-fluoro-3-(4-((2-(6-fluoro-1H-indol-3-yl)ethyl)amino)-7,8-dihydro-6H-pyrimido[5,4-b][1,4]oxazin-2-yl)pyridin-2 (1H)-one] | – |
| – | 126 | – | 69.2 | – | – | – | – | – | – | – | – | – | – | O=c1[nH]cc(F)cc1-c1nc2c(c(N[C@@H]3CCc4[nH]c5ccccc5c4C3)n1)OCCN2 [Example 71, (R)-5-fluoro-3-(4-((2,3,4,9-tetrahydro-1H-carbazol-3-yl)amino)-7,8-dihydro-6H-pyrimido[5,4-b][1,4]oxazin-2-yl)pyridin-2(1H)-one] | – |
